Measurements published in patent US20220242879A1, “FUSED HETEROCYCLE DERIVATIVES” (Janssen Sciences Ireland Unlimited Company, priority 2019, published 2022).
Read-outs that look alike come from different tables or passages of the source.

How the values were obtained:
HBV [1] = assay: HBV replication inhibition assay (BDNA assay), HepG2.2.15 cells; type: cell-based, Hepatitis B virus; settings: 6 days, HBV DNA in supernatant by branched DNA QuantiGene
Description: HBV replication inhibition by the disclosed compounds were determined in cells infected or transfected with HBV or cells with stably integrated HBV, such as HepG2.2.15 cells (Sells et al. 1987). In this example, HepG2.2.15 cells were maintained in cell culture medium containing 10% fetal bovine serum (FBS), Geneticin, L-glutamine, penicillin and streptomycin. HepG2.2.15 cells were seeded in 96-well plates at a density of 40,000 cells/well and were treated with serially diluted compounds at a final DMSO concentration of 0.5% either alone or in combination by adding drugs in a checker box format. […] HBV DNA was denatured by addition of 0.2 M NaOH and detected using a branched DNA (BDNA) QuantiGene assay kit according to manufacturer recommendation (Affymetrix). HBV DNA levels were also quantified using qPCR, based on amplification of encapsidated HBV DNA extraction with QuickExtraction Solution (Epicentre Biotechnologies) and amplification of HBV DNA using HBV specific PCR probes that can hybridize to HBV DNA and a fluorescently labeled probe for quantitation. In addition, cell viability of HepG2.2.15 cells incubated with test compounds alone or in combination was determined by using CellTitre-Glo reagent according to the manufacturer protocol (Promega). […]

[2] = Cytotoxicity, ATPlite Luminescence Assay; type: cell-based, human; settings: human, mean value, cells incubated for 3 days, viability by ATPlite, read-out: TOX-HepC2.117 CC50
Description: Cytotoxicity of the compounds was tested using HepG2 or HepG2.117 cells, incubated for 3 days in the presence of compounds. The viability of the cells was assessed using the PERKIN ELMER ATPlite Luminescence Assay System.”

HBV [3] = assay: Anti-HBV activity, HepG2.117 cell line, intracellular HBV DNA by real-time PCR; type: cell-based, Hepatitis B virus; settings: Hepatitis B virus, read-out: HBV-AVE-HepG2.117 EC50
Description: The anti HBV activity was measured using the HepG2.117 cell line, a stable, inducibly HBV producing cell line, which replicates HBV in the absence of doxicycline (Tet-off system). The HepG2 cell line is available from ATCC® under number HB-8065. Transfection of the HepG2 cell line can be as described in Sun and Nassal 2006 Journal of Hepatology 45 (2006) 636-645 “Stable HepG2- and Huh7-based human hepatoma cell lines for efficient regulated expression of infectious hepatitis B virus”.
For the antiviral assay, HBV replication was induced, followed by a treatment with serially diluted compound in 96-well plates. After 3 days of treatment, the antiviral activity was determined by, quantification of intracellular HBV DNA using real-time PCR and an HBV specific primer set and probe.

[4] = 72 h, mean value, HepG2.117 cells, 3 days of treatment, intracellular HBV DNA

N#Cc1cc(NC(=O)N2CCc3nn4c(c3C2)-c2nocc2CC(COCC(F)F)C4)ccc1F (single isomer, unassigned) [Example 5a, (5S*)-N-3-Cyano-4-fluorophenyl)-5-(2,2-difluoroethoxy)methyl)-5,6,9,10-tetrahydro-4H-isoxazolo[3,4-c]pyrido[4′,3′:3,4]pyrazolo[1,5-a]azepine-11(12H)-carboxamide]
EC50 (HBV [1]): 82 nM

C=C1Cc2c(noc2N(C)C)-c2c3c(nn2C1)CCN(C(=O)c1ccc(Cl)c(Cl)c1)C3 [Compound 26, (3,4-Dichlorophenyl)[3-(dimethylamino)-5-methylidene-5,6,9,10-tetrahydro-4H-[1,2]oxazolo-[3,4-c]pyrido[4′,3′:3,4]pyrazolo[1,5-a]azepin-11(12H)-yl]methanone]
CC50 at 3 days ([2]; HepG2.117 cells): > 50000 nM
EC50 (HBV [3]; [4]): 1150 nM

O=C(c1ccc(Cl)c(Cl)c1)N1CCc2nn3c(c2C1)-c1nocc1CC(CO)C3 (centres unmarked) [Compound 27]
CC50 at 3 days ([2]; HepG2.117 cells): > 50000 nM
EC50 (HBV [3]; [4]): 393 nM

O=C(O)C1Cc2conc2-c2c3c(nn2C1)CCN(C(=O)c1ccc(Cl)c(Cl)c1)C3 (centres unmarked) [Compound 29, 11-(3,4-Dichlorobenzoyl)-5,6,9,10,11,12-hexahydro-4H-[1,2]oxazolo[3,4-c]pyrido[4′,3′:3,4]-pyrazolo[1,5-a]azepine-5-carboxylic Acid]
CC50 at 3 days ([2]; HepG2.117 cells): > 50000 nM
EC50 (HBV [3]; [4]): 15500 nM

CCNC(=O)C1Cc2conc2-c2c3c(nn2C1)CCN(C(=O)c1ccc(Cl)c(Cl)c1)C3 (centres unmarked) [Compound 32, 11-(3,4-Dichlorobenzoyl)-N-ethyl-5,6,9,10,11,12-hexahydro-4H-[1,2]oxazolo[3,4-c]pyrido-[4′,3′:3,4]pyrazolo[1,5-a]azepine-5-carboxamide]
CC50 at 3 days ([2]; HepG2.117 cells): > 50000 nM
EC50 (HBV [3]; [4]): 90 nM

O=C(NC1CC1)C1Cc2conc2-c2c3c(nn2C1)CCN(C(=O)c1ccc(Cl)c(Cl)c1)C3 (centres unmarked) [Compound 33, N-Cyclopropyl-11-(3,4-dichlorobenzoyl)-5,6,9,10,11,12-hexahydro-4H-[1,2]oxazolo[3,4-c]-pyrido[4′,3′:3,4]pyrazolo[1,5-a]azepine-5-carboxamide]
CC50 at 3 days [2]: > 50000 nM
EC50 (HBV [3]; HepG2.117, 72 h): 154 nM

O=C(NCCO)C1Cc2conc2-c2c3c(nn2C1)CCN(C(=O)c1ccc(Cl)c(Cl)c1)C3 (centres unmarked) [Compound 34, 11-(3,4-Dichlorobenzoyl)-N-(2-hydroxyethyl)-5,6,9,10,11,12-hexahydro-4H-[1,2]oxazolo-[3,4-c]pyrido[4′,3′:3,4]pyrazolo[1,5-a]azepine-5-carboxamide]
CC50 at 3 days ([2]; HepG2.117 cells): > 50000 nM
EC50 (HBV [3]; [4]): 358 nM

O=C(NCC(F)(F)F)C1Cc2conc2-c2c3c(nn2C1)CCN(C(=O)c1ccc(Cl)c(Cl)c1)C3 (centres unmarked) [Compound 35, 11-(3,4-Dichlorobenzoyl)-N-(2,2,2-trifluoroethyl)-5,6,9,10,11,12-hexahydro-4H-[1,2]oxazolo-[3,4-c]pyrido[4′,3′:3,4]pyrazolo[1,5-a]azepine-5-carboxamide]
CC50 at 3 days ([2]; HepG2.117 cells): > 50000 nM
EC50 (HBV [3]; [4]): 395 nM

CN(C)C(=O)C1Cc2conc2-c2c3c(nn2C1)CCN(C(=O)c1ccc(Cl)c(Cl)c1)C3 (centres unmarked) [Compound 36, 11-(3,4-Dichlorobenzoyl)-N,N-dimethyl-5,6,9,10,11,12-hexahydro-4H-[1,2]oxazolo[3,4-c]pyrido[4′,3′:3,4]pyrazolo[1,5-a]azepine-5-carboxamide]
CC50 at 3 days ([2]; HepG2.117 cells): > 50000 nM
EC50 (HBV [3]; [4]): 686 nM

O=C(Nc1ccccc1)C1Cc2conc2-c2c3c(nn2C1)CCN(C(=O)c1ccc(Cl)c(Cl)c1)C3 (centres unmarked) [Compound 37, 11-(3,4-Dichlorobenzoyl)-N-phenyl-5,6,9,10,11,12-hexahydro-4H-[1,2]oxazolo[3,4-c]-pyrido[4′,3′:3,4]pyrazolo[1,5-a]azepine-5-carboxamide]
CC50 at 3 days [2]: > 50000 nM
EC50 (HBV [3]; HepG2.117, 72 h): 343 nM

O=C(c1ccc(Cl)c(Cl)c1)N1CCc2nn3c(c2C1)-c1nocc1CC(C(=O)N1CCOCC1)C3 (centres unmarked) [Compound 38, [1-(3,4-Dichlorobenzoyl)-5,6,9,10,11,12-hexahydro-4H-[1,2]oxazolo[3,4-c]pyrido[4′,3′:3,4]-pyrazolo[1,5-a]azepin-5-yl](morpholin-4-yl)methanone]
CC50 at 3 days ([2]; HepG2.117 cells): > 50000 nM
EC50 (HBV [3]; [4]): 1440 nM

O=C(c1ccc(Cl)c(Cl)c1)N1CCc2nn3c(c2C1)-c1oncc1CCC3 [Compound 39, (3,4-Dichlorophenyl)(4,5,6,9,10,12-hexahydro-11H-[1,2]oxazolo[5,4-c]pyrido[4′,3′:3,4]-pyrazolo[1,5-a]azepin-11-yl)methanone]
CC50 at 3 days ([2]; HepG2.117 cells): 43600 nM
EC50 (HBV [3]; [4]): 1340 nM

O=C(c1ccc(Cl)c(Cl)c1)N1CCc2nn3c(c2C1)-c1ncoc1CCC3 [Compound 40, (3,4-Dichlorophenyl)(4,5,6,9,10,12-hexahydro-11H-[1,3]oxazolo[4,5-c]pyrido-[4′,3′:3,4]pyrazolo[1,5-a]azepin-11-yl)methanone]
CC50 at 3 days ([2]; HepG2.117 cells): > 50000 nM
EC50 (HBV [3]; [4]): 499 nM

O=C(c1ccc(Cl)c(Cl)c1)N1CCc2nn3c(c2C1)-c1n[nH]cc1CCC3 [Compound 41, (3,4-Dichlorophenyl)(2,5,6,9,10,12-hexahydropyrazolo[3,4-c]pyrido[4′,3′,3,4]pyrazolo[1,5-a]-azepin-11(4H)-yl)methanone]
CC50 at 3 days ([2]; HepG2.117 cells): 25600 nM
EC50 (HBV [3]; [4]): 749 nM

Cn1cc2c(n1)-c1c3c(nn1CCC2)CCN(C(=O)c1ccc(Cl)c(Cl)c1)C3 [Compound 42, (3,4-Dichlorophenyl)(2-methyl-2,5,6,9,10,12-hexahydropyrazolo[3,4-c]pyrido[4′,3′:3,4]-pyrazolo[1,5-a]azepin-11(4H)-yl)methanone]
CC50 at 3 days ([2]; HepG2.117 cells): > 50000 nM
EC50 (HBV [3]; [4]): > 48800 nM

O=C(c1ccc(Cl)c(Cl)c1)N1CCc2nn3c(c2C1)-c1n[nH]cc1CC(CO)C3 (centres unmarked) [Compound 43, (3,4-Dichlorophenyl)[5-(hydroxymethyl)-2,5,6,9,10,12-hexahydropyrazolo[3,4-c]pyrido-[4′,3′:3,4]pyrazolo[1,5-a]azepin-11(41)-yl]methanone]
CC50 at 3 days ([2]; HepG2.117 cells): > 50000 nM
EC50 (HBV [3]; [4]): 2320 nM

O=C(c1ccc(Cl)c(Cl)c1)N1CCc2nn3c(c2C1)-c1nc[nH]c1CCC3 [Compound 44, (3,4-Dichlorophenyl)(4,5,6,9,10,12-hexahydroimidazo[4,5-c]pyrido[4′,3′:3,4]pyrazolo[1,5-a]azepin-11(3H)-yl)methanone]
CC50 at 3 days ([2]; HepG2.117 cells): > 50000 nM
EC50 (HBV [3]; [4]): 574 nM

Cn1cnc2c1CCCn1nc3c(c1-2)CN(C(=O)c1ccc(Cl)c(Cl)c1)CC3 [Compound 45, (3,4-Dichlorophenyl)(3-methyl-4,5,6,9,10,12-hexahydroimidazo[4,5-c]pyrido[4′,3′:3,4]pyrazolo-[1,5-a]azepin-11(3H)-yl)methanone]
CC50 at 3 days ([2]; HepG2.117 cells): > 50000 nM
EC50 (HBV [3]; [4]): 4970 nM

O=C(c1ccc(Cl)c(Cl)c1)N1CCc2nn3c(c2C1)-c1ncsc1CCC3 [Compound 46, (3,4-Dichlorophenyl)(4,5,6,9,10,12-hexahydro-11H-pyrido[4′,3′:3,4]pyrazolo[1,5-a][1,3]-thiazolo[4,5-c]azepin-11-yl)methanone]
CC50 at 3 days ([2]; HepG2.117 cells): 27100 nM
EC50 (HBV [3]; [4]): 236 nM

Nc1nc2c(s1)CCCn1nc3c(c1-2)CN(C(=O)c1ccc(Cl)c(Cl)c1)CC3 [Compound 51, (2-amino-4,5,6,9,10,12-hexahydro-11H-pyrido[4′,3′:3,4]pyrazolo[1,5-a]thiazolo[4,5-c]azepin-11-yl)(3,4-dichlorophenyl)methanone]
CC50 at 3 days ([2]; HepG2.117 cells): > 50000 nM
EC50 (HBV [3]; [4]): > 10000 nM

O=C(c1cnc(Cl)c(Cl)c1)N1CCc2nn3c(c2C1)-c1nocc1CC(O)C3 (centres unmarked) [Compound 53]
CC50 at 3 days ([2]; HepG2.117 cells): > 50000 nM
EC50 (HBV [3]; [4]): > 10000 nM
